Tested on: human moDCs and autologous memory CD4+ T cells
Assay: moDC and memory CD4+ T cell coculture, cytokine secretion and viability
Format: cell-based
Conditions: for IL-1β: MCC950 10 μM or anti-IL-1β 10 μg/mL added to R848+DGP where named, FIG. 36A
Protocol: Monocyte Isolation, Storage, and Differentiation into moDC.
Memory CD4+ T Cell Isolation. The CD14− fraction of the leukapheresis product was collected and used for further isolation of memory CD4+ T cells. First, approximately 5×10^9 total nucleated cells or less of the blood product were pelleted at 200×g for 10 min. The cells were resuspended in two 50 mL conical tubes each containing 25 mL in volume. Cells were then incubated with microbeads targeting red blood cells and granulocytes at 4° C. for 15 min. Cells were loaded on equilibrated MultiMACS columns using the “Deplete” program. Columns were washed twice with separation buffer and the flow-through of peripheral blood mononuclear cells (PBMCs) were collected and counted. The Memory CD4+ T Cell Isolation Kit from Miltenyi was then used to isolate memory CD4+ T cells from the PBMCs. After following the manufacturer's protocol for antibody and microbead incubations, cells were loaded onto equilibrated MultiMACS columns using the “Deplete” program. After 2 column washes using separation buffer, the negative fraction was collected and counted. An aliquot was stained to confirm the purity of the memory CD4 T cell population. […] Vials were placed in CoolCell freezing containers and placed in a −80° C. freezer for no longer than 1 week. Frozen cells were transferred for long-term storage to the vapor phase of a liquid nitrogen freezer until use.
Treatments of Cells For Analysis of Cytokine Secretion. Human moDCs were plated at 5×10^4 cells/well in 96-well U-bottom tissue culture plates in R10++ media by adding 50 μL of cells per well. To each well, 50 μL of memory CD4 T cells at 2.5×10^6 cells/mL was added. For control conditions where only moDC or only CD4 T cells were plated, the missing cells were replaced with an equivalent volume of R10++ media.
Lyophilized R848 stocks were prepared as described above and frozen at −80° C. for storage. An aliquot of frozen R848 was thawed and further diluted to 22.8 μM in R10++ (8 μg/mL R848). A portion of diluted R848 was combined with MCC950 to reach a concentration of 80 μM MCC950. Another portion of diluted R848 was combined with anti-IL-1β blocking antibody to reach a concentration of 80 μg/mL anti-IL-1β. Cell cultures received 25 μL of these mixes depending on desired treatment. For wells not receiving R848 treatment, an equivalent volume of R10++ media was added to wells. For these three chemicals, final concentrations in the wells were 2.85 μM R848, 10 μM MCC950, and 10 μg/mL anti-IL-1β.
A4.44% solution of KP407 dissolved in sterile, distilled water was prepared at a temperature of 4° C. DGP from powder was prepared by adding KP407 solution to lipid. […] Sterile 10×PBS was added to the solution resulting in a 1×PBS concentration. […]

Compound	production of IL-4, IL5, and IL-13 (coculture, 2 days, FIG. 38A-C)	IL-1β (coculture, 2 days)	IFNγ (coculture with anti-CD3, 2 days, MCC950 or anti-IL-1β added to R848+DGP where named, FIG. 37A)
CCCCCCCCCCCCCCCCCCCCCCOC[C@@H](O)COP(=O)(O)O [Compound 2, 1-docosyl-sn-glycerol-3-phosphate]	not elevated compared to unstimulated conditions	minimal IL-1β was detected	
CC(C)(O)c1coc(S(=O)(=O)NC(=O)Nc2c3c(cc4c2CCC4)CCC3)c1 [MCC950, reference compound]		IL-1β was significantly reduced	IFNγ production was significantly reduced
